From US6417212B1, “Modulators of peroxisome proliferator activated receptors” (Eli Lilly & Company, priority 1999, dated 2002)

Tests used:
huPPARα [1] = experiment: Cotransfection assay in CV-1 cells, huPPARα (GAL4 chimeric system); type: cell-based, human; settings: luciferase reporter, relative to PPARα agonist reference molecule
Description: (§1) DNA-dependent binding (ABCD binding) was carried out using SPA technology with PPAR receptors. Tritium-labeled PPARγ and PPARα agonists were used as radioligands for generating displacement curves and IC50 values with compounds of the invention. Cotransfection assays were carried out in CV-1 cells. The reporter plasmid contained an acylCoA oxidase (AOX) PPRE and TK promoter upstream of the luciferase reporter cDNA. Appropriate PPARs and RXRα were constitutively expressed using plasmids containing the CMV promoter. For PPARα and PPARβ, interference by endogenous PPARγ in CV-1 cells was an issue. In order to eliminate such interference, a GAL4 chimeric system was used in which the DNA binding domain of the transfected PPAR was replaced by that of GAL4, and the GAL4 response element was utilized in place of the AOX PPRE. Cotransfection efficacy was determined relative to PPARα agonist and PPARβ agonist reference molecules. Efficacies were determined by computer fit to a concentration-response curve, or in some cases at a single high concentration of agonist (10 μM). For binding or cotransfection studies with receptors other than PPARs, similar assays were carried out using appropriate ligands, receptors, reporter constructs, etc., for that particular receptor.
(§2) These studies were carried out to evaluate the ability of compounds of the invention to bind to and/or activate various nuclear transcription factors, particularly huPPARα (“hu” indicates “human”) and huPPARγ. These studies provide in vitro data concerning efficacy and selectivity of compounds of the invention. Furthermore, binding and cotransfection data for compounds of the invention were compared with corresponding data for marketed compounds that act on either huPPARα or huPPARγ.

huPPARγ [2] = biological target: T1, huPPARγ (Homo sapiens, UniProt P37231); experiment: Cotransfection assay in CV-1 cells, huPPARγ; type: cell-based; parameters: expressed in transfected cells; host or cells: CV-1 cells; settings: AOX PPRE luciferase reporter, relative to agonist reference molecule; for Emax: read-out: huPPARγ CTF Efficacy
T1 sequence (P37231 1-505): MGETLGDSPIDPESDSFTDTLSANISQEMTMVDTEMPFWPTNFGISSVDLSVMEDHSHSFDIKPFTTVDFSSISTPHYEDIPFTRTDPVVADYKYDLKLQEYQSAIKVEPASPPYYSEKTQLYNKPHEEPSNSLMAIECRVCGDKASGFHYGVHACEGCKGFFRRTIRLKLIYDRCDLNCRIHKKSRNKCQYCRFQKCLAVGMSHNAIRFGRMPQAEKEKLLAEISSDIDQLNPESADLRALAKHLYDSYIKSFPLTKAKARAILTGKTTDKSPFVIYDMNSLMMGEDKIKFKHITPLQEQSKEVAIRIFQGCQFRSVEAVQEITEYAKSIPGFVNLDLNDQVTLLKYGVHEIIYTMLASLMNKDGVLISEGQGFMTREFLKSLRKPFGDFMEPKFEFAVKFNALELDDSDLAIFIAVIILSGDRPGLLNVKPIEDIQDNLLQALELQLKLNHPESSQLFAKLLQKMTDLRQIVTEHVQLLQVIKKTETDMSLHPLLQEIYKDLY
T1 sequence (P19793 1-462 partner): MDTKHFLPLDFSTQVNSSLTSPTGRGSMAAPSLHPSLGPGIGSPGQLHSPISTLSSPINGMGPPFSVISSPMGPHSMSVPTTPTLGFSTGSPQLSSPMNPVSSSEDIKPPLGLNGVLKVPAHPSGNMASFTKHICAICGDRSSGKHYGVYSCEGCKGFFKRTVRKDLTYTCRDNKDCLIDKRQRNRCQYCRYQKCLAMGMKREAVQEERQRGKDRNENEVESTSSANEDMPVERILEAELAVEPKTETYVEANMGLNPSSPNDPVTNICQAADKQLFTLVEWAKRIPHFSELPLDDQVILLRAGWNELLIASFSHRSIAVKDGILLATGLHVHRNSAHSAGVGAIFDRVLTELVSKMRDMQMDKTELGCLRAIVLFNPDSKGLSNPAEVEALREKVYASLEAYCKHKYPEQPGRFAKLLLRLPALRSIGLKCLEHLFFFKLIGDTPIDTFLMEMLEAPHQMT
Description: as §1, with “Tritium-labeled PPARγ and PPARα agonists were used as radioligands for generating displacement curves and IC50 values with compounds of the invention.” left out, “For PPARα and PPARβ, interference by endogenous PPARγ in CV-1 cells was an issue.” left out, “Cotransfection efficacy was determined relative to PPARα agonist and PPARβ agonist reference molecules.” left out
as §2

huPPARα [3] = biological target: T2, huPPARα (Homo sapiens, UniProt Q07869); experiment: DNA-dependent binding (ABCD binding), SPA, huPPARα; settings: displacement of tritium-labeled PPARα agonist radioligand
T2 sequence (Q07869 1-468): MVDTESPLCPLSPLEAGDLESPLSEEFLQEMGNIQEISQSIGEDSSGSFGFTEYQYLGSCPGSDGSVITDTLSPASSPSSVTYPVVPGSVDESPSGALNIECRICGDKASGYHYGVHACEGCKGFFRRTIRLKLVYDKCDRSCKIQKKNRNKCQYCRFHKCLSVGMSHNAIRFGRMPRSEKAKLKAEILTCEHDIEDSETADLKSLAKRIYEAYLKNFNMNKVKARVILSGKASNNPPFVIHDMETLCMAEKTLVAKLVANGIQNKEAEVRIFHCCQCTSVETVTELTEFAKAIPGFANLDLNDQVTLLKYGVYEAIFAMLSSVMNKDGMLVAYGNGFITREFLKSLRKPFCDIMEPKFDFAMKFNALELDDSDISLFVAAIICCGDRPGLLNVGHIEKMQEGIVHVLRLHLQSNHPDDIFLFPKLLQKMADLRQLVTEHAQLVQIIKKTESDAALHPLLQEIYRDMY
T2 sequence (P19793 1-462 partner): T1 sequence (P19793 1-462 partner)
Description: as §1, with “For PPARα and PPARβ, interference by endogenous PPARγ in CV-1 cells was an issue.” left out
as §2

huPPARγ [4] = biological target: T1, huPPARγ; experiment: DNA-dependent binding (ABCD binding), SPA, huPPARγ; settings: displacement of tritium-labeled PPARγ agonist radioligand
Description: as §1, with “For PPARα and PPARβ, interference by endogenous PPARγ in CV-1 cells was an issue.” left out
as §2

SMILES | Emax (huPPARγ [2]) | IC50 (huPPARα [3]) | IC50 (huPPARγ [4]) | huPPARγ CTF Efficacy (huPPARγ [2]) | huPPARα CTF Efficacy (huPPARα [1])
COc1ccccc1-c1ccc(-c2nc(CCOc3ccc(OC(C)(C)C(=O)O)cc3)c(C)o2)cc1 [Example 10, 2-(4-{2-[2-(2′-Methoxy-biphenyl-4-yl)-5-methyloxazol-4-yl]-ethoxy}-phenoxy)-2-methylpropionic acid] | 80% | 350 nM | 1060 nM |  | 111%
Cc1oc(-c2ccc(-c3ccccc3F)cc2)nc1CCOc1ccc(OC(C)(C)C(=O)O)cc1 [Example 13, 2-(4-{2-[2-(2′-Fluorobiphenyl-4-yl)-5-methyloxazol-4-yl]-ethoxy}-phenoxy)-2-methylpropionic acid] | 100% | 475 nM | 928 nM |  | 84%
Cc1oc(-c2ccc(-c3ccc[nH]3)cc2)nc1CCOc1ccc(OC(C)(C)C(=O)O)cc1 [Example 18, 2-Methyl-2-[4-(2-{5-methyl-2-[4-(1H-pyrrol-2-yl)-phenyl]-oxazol-4-yl}-ethoxy)-phenoxy]propionic acid] | 145% | 539 nM | 1790 nM |  | 97%
Cc1oc(-c2ccc(-c3ccccc3)cc2)nc1CCOc1ccc(OC(C)(C)C(=O)O)cc1CC1CCCCC1 [Example 34, 2-{4-[2-(2-Biphenyl-4-yl-5-methyloxazol-4-yl)ethoxy]-3-cyclohexylmethylphenoxy}-2-methylpropionic acid] | 55% | 193 nM | 227 nM |  | 180%
Cc1oc(-c2ccc(-c3ccccc3)cc2)nc1CCSc1ccc(OC(C)(C)C(=O)O)cc1 [Example 47, 2-{4-[2-(2-Biphenyl-4-yl-5-methyloxazol-4-yl)-ethylsulfanyl]-phenoxy}-2-methyl-propionic acid] | 126% | 371 nM | 1530 nM |  | 90%
CC(C)(Oc1ccc(C(=O)c2ccc(Cl)cc2)cc1)C(=O)O [Fenofibric acid, reference compound] |  |  |  | 0% | 16%

Continued, in another order:

Emax (huPPARγ [2]) | IC50 (huPPARα [3]) | IC50 (huPPARγ [4]) | huPPARγ CTF Efficacy (huPPARγ [2]) | SMILES | huPPARα CTF Efficacy (huPPARα [1])
71% | 125 nM | 81 nM |  | Cc1oc(-c2ccc(-c3ccccc3)cc2)nc1CCOc1ccc(OC(C)(C)C(=O)O)c(CC2CCCCC2)c1 [Example 25, 2-{4-[2-(2-Biphenyl-4-yl-5-methyloxazol-4-yl)-ethoxy]-2-cyclohexylmethyl-phenoxy}-2-methyl-propionic acid] | 104%
73% | 78 nM | 33 nM |  | Cc1oc(-c2cccc(-c3ccccc3)c2)nc1CCOc1ccc(OC(C)(C)C(=O)O)c(CC2CCCCC2)c1 [Example 26, 2-{4-[2-(2-Biphenyl-3-yl-5-methyloxazol-4-yl)-ethoxy]-2-cyclohexylmethyl-phenoxy}-2-methyl-propionic acid] | 111%
63% | 172 nM | 140 nM |  | Cc1oc(-c2ccc(-c3ccccc3)cc2)nc1CCOc1ccc(OC(C)(C)C(=O)O)c(CCc2ccccc2)c1 [Example 28, 2-{4-[2-(2-Biphenyl-4-yl-5-methyloxazol-4-yl)ethoxy]-2-phenethylphenoxy}-2-methylpropionic acid] | 93%
60% | 47 nM | 12 nM |  | CCCCc1cc(OC(C)(C)C(=O)O)ccc1OCCc1nc(-c2cccc(-c3ccccc3)c2)oc1C [Example 32, 2-{4-[2-(2-Biphenyl-3-yl-5-methyloxazol-4-yl)ethoxy]-3-butylphenoxy}-2-methylpropionic acid] | 91%
61% | 65 nM | 24 nM |  | Cc1oc(-c2cccc(-c3ccccc3)c2)nc1CCOc1ccc(OC(C)(C)C(=O)O)c(Cc2ccccc2)c1 [Example 35, 2-{2-Benzyl-4-[2-(2-biphenyl-3-yl-5-methyloxazol-4-yl)-ethoxy]-phenoxy}-2-methyl-propionic acid] | 90%
92% | 140 nM | 62 nM |  | Cc1oc(-c2ccc(-c3ccccc3)cc2)nc1CCOc1ccc(OC(C)(C)C(=O)O)c(Cc2ccccc2)c1 [Example 36, 2-{2-Benzyl-4-[2-(2-biphenyl-4-yl-5-methyloxazol-4-yl)-ethoxy]-phenoxy}-2-methyl-propionic acid] | 140%
